Measured values: patent US8134007B2, “Pyridine derivatives” (Pfizer Inc., priority 2007, dated 2012)

How the values were obtained:
Format in all cases: cell-based
Human Nav1.8 = molecular target: T1, Human Nav1.8 (Homo sapiens, UniProt Q9Y5Y9); assay: VIPR Assay for Nav1.8 Compounds (FRET membrane potential, deltamethrin opener); settings: VIPR FRET membrane potential assay, deltamethrin opener; average of replicates; read-out: Nav1.8 IC50
T1 construct: expressed in transfected cells; host or cells: HEK293
T1 sequence (Q9Y5Y9 whole entry): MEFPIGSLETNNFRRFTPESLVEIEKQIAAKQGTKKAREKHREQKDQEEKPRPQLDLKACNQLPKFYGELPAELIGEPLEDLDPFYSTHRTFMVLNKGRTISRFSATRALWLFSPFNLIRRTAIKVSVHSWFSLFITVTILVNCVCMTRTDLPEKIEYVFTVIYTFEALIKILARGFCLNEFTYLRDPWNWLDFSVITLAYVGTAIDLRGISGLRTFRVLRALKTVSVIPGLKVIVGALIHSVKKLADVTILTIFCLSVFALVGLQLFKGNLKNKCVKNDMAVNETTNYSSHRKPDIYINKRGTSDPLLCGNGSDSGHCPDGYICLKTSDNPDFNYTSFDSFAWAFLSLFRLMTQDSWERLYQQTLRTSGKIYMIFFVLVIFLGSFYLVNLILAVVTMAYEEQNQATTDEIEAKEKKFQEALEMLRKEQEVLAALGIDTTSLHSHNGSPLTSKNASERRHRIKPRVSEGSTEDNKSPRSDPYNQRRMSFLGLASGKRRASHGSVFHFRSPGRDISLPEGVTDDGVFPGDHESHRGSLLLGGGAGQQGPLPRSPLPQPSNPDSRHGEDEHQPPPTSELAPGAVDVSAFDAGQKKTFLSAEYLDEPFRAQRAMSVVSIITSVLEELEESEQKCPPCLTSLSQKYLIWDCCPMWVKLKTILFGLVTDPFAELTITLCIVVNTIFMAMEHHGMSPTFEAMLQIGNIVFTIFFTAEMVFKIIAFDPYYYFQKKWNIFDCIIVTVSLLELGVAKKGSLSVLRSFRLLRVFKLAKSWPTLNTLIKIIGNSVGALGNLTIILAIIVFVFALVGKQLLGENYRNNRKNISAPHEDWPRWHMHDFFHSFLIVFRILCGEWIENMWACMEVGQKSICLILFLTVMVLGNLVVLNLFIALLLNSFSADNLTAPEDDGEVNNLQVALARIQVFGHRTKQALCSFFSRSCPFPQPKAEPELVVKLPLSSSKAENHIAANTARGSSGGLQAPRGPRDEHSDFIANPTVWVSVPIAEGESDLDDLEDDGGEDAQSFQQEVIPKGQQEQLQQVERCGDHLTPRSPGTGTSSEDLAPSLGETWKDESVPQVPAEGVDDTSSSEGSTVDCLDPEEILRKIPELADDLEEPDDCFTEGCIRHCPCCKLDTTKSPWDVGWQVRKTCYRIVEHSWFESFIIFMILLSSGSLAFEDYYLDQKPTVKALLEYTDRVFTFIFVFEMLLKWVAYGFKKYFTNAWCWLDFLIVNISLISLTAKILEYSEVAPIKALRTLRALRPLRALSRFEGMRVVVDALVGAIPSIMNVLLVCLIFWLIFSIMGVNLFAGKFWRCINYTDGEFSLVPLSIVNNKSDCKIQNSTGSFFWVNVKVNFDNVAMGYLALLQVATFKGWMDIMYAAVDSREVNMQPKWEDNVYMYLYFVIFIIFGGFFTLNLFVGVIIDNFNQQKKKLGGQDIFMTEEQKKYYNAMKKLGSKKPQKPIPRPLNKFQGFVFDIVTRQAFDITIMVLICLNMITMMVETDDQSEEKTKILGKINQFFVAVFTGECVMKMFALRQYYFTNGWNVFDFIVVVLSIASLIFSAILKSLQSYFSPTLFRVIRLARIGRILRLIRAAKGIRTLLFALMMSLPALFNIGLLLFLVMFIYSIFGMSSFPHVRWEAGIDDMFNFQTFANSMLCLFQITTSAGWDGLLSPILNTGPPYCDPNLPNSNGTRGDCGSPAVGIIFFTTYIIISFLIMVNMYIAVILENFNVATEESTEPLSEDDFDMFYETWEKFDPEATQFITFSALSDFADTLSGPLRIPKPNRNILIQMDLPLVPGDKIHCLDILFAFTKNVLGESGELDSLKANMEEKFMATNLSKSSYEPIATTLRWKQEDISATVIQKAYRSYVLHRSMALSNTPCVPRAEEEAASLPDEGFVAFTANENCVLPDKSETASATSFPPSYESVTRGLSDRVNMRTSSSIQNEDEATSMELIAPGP

[1] = test system: tetrodotoxin-sensitive voltage-gated sodium channels including NaV1.2, NaV1.3 and NaV1.7; assay: TTX-S Assay (VIPR, SHSY-5Y cell line, veratridine opener); settings: read-out: TTX-S IC50, veratridine 50 μM opener, average of replicates
Human Nav1.5 = molecular target: T2, Human Nav1.5 (Homo sapiens, UniProt Q14524); assay: Nav1.5 Assay (VIPR, HEK293 cells); settings: HEK293 cells expressing Human Nav1.5; average of replicates; read-out: Nav1.5 IC50
T2 construct: expressed in transfected cells; host or cells: HEK293
T2 sequence (Q14524 whole entry): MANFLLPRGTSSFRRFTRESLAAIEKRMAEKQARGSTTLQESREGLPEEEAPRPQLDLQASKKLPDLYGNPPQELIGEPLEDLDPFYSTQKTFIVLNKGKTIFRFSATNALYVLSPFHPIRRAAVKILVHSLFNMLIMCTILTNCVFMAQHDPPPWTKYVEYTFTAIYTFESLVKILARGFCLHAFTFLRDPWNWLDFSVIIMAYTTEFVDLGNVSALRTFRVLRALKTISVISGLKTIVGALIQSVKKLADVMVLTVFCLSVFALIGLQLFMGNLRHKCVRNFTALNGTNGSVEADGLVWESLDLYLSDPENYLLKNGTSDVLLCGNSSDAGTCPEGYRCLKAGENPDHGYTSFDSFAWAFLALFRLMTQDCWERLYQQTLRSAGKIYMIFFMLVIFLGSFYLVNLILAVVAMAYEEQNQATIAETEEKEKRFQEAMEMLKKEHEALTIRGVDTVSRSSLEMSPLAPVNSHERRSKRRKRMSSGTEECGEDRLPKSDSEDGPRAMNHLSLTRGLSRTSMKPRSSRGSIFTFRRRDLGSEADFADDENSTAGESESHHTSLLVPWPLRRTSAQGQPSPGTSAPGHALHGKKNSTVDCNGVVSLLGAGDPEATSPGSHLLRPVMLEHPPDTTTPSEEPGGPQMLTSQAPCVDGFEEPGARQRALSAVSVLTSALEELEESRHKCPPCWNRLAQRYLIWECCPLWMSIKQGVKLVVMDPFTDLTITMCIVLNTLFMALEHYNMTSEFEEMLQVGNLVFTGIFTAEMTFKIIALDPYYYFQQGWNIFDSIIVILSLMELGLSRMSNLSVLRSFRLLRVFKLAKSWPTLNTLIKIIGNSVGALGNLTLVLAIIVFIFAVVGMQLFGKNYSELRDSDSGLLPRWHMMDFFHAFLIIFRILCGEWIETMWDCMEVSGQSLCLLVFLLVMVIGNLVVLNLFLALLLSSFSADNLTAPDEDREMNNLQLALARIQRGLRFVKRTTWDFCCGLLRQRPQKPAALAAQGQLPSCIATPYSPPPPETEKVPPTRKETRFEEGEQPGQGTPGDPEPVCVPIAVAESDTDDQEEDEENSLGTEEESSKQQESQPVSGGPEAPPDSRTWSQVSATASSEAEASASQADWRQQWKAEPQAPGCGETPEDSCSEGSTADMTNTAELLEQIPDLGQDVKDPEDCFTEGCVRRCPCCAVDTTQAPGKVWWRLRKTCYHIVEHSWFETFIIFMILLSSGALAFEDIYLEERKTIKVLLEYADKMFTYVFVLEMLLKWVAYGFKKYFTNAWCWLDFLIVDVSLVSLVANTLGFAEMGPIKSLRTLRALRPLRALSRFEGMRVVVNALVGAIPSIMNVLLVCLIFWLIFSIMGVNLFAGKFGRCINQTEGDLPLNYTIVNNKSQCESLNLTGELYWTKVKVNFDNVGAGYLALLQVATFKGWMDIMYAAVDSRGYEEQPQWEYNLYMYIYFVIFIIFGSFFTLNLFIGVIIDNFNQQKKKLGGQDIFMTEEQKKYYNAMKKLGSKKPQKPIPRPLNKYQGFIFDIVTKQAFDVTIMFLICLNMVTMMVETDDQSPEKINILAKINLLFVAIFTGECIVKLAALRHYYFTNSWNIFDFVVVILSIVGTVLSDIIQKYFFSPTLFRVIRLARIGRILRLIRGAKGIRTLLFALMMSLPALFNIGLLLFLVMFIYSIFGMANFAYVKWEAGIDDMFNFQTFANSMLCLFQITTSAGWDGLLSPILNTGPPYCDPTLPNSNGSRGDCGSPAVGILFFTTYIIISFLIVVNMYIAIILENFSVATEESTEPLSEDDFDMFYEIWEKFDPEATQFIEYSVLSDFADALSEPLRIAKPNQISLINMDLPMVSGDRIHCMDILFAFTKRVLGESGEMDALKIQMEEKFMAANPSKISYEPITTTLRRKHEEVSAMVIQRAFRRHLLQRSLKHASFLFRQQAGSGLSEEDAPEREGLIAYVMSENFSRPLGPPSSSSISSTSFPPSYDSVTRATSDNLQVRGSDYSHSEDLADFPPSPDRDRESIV
Method: The Nav1.5 assay is performed in HEK293 cells expressing Human Nav1.5 in the same way as the Nav1.8 assay.
Where replicate experiments were conducted resulting in multiple sets of data for a test compound, the data presented represent the average value from all replicate experiments.

| Structure (SMILES) | IC50 (Human Nav1.8) [µM] | IC50 [1] [µM] | IC50 (Human Nav1.5) [µM] |
| --- | --- | --- | --- |
| Cn1nncc1C(=O)Nc1ccc(-c2cc(Cl)cc(Cl)c2Cl)c(N)n1 [Example 84, N-[6-Amino-5-(2,3,5-trichlorophenyl)pyridin-2-yl]-1-methyl-1H-1,2,3-triazole-5-carboxamide] | 2.4 | 6.5 | 5.3 |
| CCn1nccc1C(=O)Nc1ccc(-c2cc(OC)ccc2Cl)c(N)n1 [Example 52, N-[6-Amino-5-(2-chloro-5-methoxyphenyl)pyridin-2-yl]-1-ethyl-1H-pyrazole-5-carboxamide] | 0.95 | 6.4 | 16 |
| Cc1n[nH]cc1C(=O)Nc1ccc(-c2ccccc2OC(F)(F)F)c(N)n1 [Example 108, N-{6-Amino-5-[2-(trifluoromethoxy)phenyl]pyridin-2-yl}-3-methyl-1H-pyrazole-4-carboxamide] | 26 | 27 | > 32 |
| CCn1nccc1C(=O)Nc1ccc(-c2ccccc2Cl)c(N)n1 [Example 53, N-[6-Amino-5-(2-chlorophenyl)pyridin-2-yl]-1-ethyl-1H-pyrazole-5-carboxamide] | 2.3 | 15 | 22 |
| Cn1nncc1C(=O)Nc1ccc(-c2cc(F)ccc2Cl)c(N)n1 [Example 86, N-[6-Amino-5-(2-chloro-5-fluorophenyl)pyridin-2-yl]-1-methyl-1H-1,2,3-triazole-5-carboxamide] | 5.3 | 19 | 7.5 |
| Cn1nccc1C(=O)Nc1ccc(-c2cc(F)ccc2C(F)(F)F)c(N)n1 [Example 12, N-{6-Amino-5-[5-fluoro-2-(trifluoromethyl)phenyl]pyridin-2-yl}-1-methyl-1H-pyrazole-5-carboxamide] | 3 | > 32 | > 32 |
| Cn1nccc1C(=O)Nc1ccc(-c2cc(OC(F)(F)F)ccc2Cl)c(N)n1 [Example 18, N-{6-Amino-5-[2-chloro-5-(trifluoromethoxy)phenyl]pyridin-2-yl}-1-methyl-1H-pyrazole-5-carboxamide] | 1.6 | 1.8 | 8.5 |
| Cn1nncc1C(=O)Nc1ccc(-c2ccccc2Cl)c(N)n1 [Example 82, N-[6-Amino-5-(2-chlorophenyl)pyridin-2-yl]-1-methyl-1H-1,2,3-triazole-5-carboxamide] | 9.3 | > 32 | > 32 |
| COCc1cc(C(=O)Nc2ccc(-c3ccccc3OC(F)(F)F)c(N)n2)on1 [Example 94] | > 32 | 19 | 31 |
| Cn1nncc1C(=O)Nc1ccc(-c2ccccc2OC(F)(F)F)c(N)n1 [Example 85, N-{6-Amino-5-[2-(trifluoromethoxy)phenyl]pyridin-2-yl}-1-methyl-1H-1,2,3-triazole-5-carboxamide] | 7 | 28 | 31 |
| Cn1nccc1C(=O)Nc1ccc(-c2ccc(OC(F)(F)F)cc2)c(N)n1 [Example 120] | 12 | 5.2 | 10 |
| CC(C)n1nccc1C(=O)Nc1ccc(-c2cc(OC(F)(F)F)ccc2Cl)c(N)n1 [Example 69, N-{6-Amino-5-[2-chloro-5-(trifluoromethoxy)phenyl]pyridin-2-yl}-1-isopropyl-1H-pyrazole-5-carboxamide] | 16 | 3.6 | 16 |
| Cc1nocc1C(=O)Nc1ccc(-c2cc(Cl)cc(Cl)c2)c(N)n1 [Example 31, N-[6-Amino-5-(3,5-dichlorophenyl)pyridin-2-yl]-3-methylisoxazole-4-carboxamide] | 3.9 | 20 | 30 |
| Cc1nocc1C(=O)Nc1ccc(-c2ccccc2OC(F)F)c(N)n1 [Example 38, N-{6-Amino-5-[2-(difluoromethoxy)phenyl]pyridin-2-yl}-3-methylisoxazole-4-carboxamide] | 2.6 | 26 | 25 |
| COCc1nocc1C(=O)Nc1ccc(-c2ccccc2OC(F)(F)F)c(N)n1 [Example 88, N-{6-Amino-5-[2-(trifluoromethoxy)phenyl]pyridin-2-yl}-3-(methoxymethyl)isoxazole-4-carboxamide] | 1.5 | 7.3 | 9.8 |
| CCn1nccc1C(=O)Nc1ccc(-c2cc(F)ccc2Cl)c(N)n1 [Example 54, N-[6-Amino-5-(2-chloro-5-fluorophenyl)pyridin-2-yl]-1-ethyl-1H-pyrazole-5-carboxamide] | 1.2 | 18 | 20 |
| COc1ccc(Cl)c(-c2ccc(NC(=O)c3conc3C)nc2N)c1 [Example 24, N-[6-Amino-5-(2-chloro-5-methoxyphenyl)pyridin-2-yl]-3-methylisoxazole-4-carboxamide] | 0.44 | 11 | 8.5 |
